Laboratory results reported in patent US20090181963A1, “3H-[1,2,3]TRIAZOLO[4,5-D]PYRIMIDINE COMPOUNDS, THEIR USE AS mTOR KINASE AND PI3 KINASE INHIBITORS, AND THEIR [sequence]” (Wyeth, priority 2008, published 2009).

Experiments:
PI3 Kinase α = PI3 Kinase α (Homo sapiens, UniProt P42336); assay: Fluorescence polarization assay for PI3K (PI3 Kinase α); assay type: biochemical; settings: diC8-PI(4,5)P2 substrate, 25 μM ATP, one hour at 25° C.
PI3 Kinase γ = PI3 Kinase γ (Homo sapiens, UniProt P48736); assay: Fluorescence polarization assay for PI3K (PI3 Kinase γ); assay type: biochemical; settings: diC8-PI(4,5)P2 substrate, 25 μM ATP, one hour at 25° C.
Sequence of PI3 Kinase γ (P48736 whole entry): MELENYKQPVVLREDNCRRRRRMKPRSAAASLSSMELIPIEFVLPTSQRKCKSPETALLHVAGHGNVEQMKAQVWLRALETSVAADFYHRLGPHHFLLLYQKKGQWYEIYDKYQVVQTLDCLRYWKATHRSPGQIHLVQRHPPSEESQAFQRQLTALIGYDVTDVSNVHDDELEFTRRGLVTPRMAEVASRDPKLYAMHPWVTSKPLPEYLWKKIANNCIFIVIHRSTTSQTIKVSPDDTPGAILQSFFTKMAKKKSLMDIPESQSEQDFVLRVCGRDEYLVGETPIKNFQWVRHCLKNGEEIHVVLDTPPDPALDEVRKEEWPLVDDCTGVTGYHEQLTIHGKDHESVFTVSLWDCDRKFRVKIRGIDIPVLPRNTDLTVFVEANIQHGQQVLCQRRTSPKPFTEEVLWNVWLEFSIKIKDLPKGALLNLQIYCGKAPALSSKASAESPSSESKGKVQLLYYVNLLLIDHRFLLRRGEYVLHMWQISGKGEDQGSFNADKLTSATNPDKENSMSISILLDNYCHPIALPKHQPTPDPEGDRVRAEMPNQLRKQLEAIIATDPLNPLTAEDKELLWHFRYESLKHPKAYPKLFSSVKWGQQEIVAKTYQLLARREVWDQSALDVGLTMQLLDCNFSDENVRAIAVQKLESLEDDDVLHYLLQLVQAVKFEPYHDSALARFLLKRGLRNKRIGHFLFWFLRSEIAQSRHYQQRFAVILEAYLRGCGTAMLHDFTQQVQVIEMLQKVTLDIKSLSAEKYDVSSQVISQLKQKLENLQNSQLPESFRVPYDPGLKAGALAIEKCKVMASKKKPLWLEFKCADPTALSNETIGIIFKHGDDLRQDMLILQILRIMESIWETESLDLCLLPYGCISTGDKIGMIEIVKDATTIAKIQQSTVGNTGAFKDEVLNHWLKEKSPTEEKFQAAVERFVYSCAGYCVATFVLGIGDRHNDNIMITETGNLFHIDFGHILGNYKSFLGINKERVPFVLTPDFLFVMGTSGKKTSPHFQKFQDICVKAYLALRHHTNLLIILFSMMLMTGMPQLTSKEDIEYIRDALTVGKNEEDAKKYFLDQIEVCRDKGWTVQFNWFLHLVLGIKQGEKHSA

Sequence of PI3 Kinase α (P42336 whole entry): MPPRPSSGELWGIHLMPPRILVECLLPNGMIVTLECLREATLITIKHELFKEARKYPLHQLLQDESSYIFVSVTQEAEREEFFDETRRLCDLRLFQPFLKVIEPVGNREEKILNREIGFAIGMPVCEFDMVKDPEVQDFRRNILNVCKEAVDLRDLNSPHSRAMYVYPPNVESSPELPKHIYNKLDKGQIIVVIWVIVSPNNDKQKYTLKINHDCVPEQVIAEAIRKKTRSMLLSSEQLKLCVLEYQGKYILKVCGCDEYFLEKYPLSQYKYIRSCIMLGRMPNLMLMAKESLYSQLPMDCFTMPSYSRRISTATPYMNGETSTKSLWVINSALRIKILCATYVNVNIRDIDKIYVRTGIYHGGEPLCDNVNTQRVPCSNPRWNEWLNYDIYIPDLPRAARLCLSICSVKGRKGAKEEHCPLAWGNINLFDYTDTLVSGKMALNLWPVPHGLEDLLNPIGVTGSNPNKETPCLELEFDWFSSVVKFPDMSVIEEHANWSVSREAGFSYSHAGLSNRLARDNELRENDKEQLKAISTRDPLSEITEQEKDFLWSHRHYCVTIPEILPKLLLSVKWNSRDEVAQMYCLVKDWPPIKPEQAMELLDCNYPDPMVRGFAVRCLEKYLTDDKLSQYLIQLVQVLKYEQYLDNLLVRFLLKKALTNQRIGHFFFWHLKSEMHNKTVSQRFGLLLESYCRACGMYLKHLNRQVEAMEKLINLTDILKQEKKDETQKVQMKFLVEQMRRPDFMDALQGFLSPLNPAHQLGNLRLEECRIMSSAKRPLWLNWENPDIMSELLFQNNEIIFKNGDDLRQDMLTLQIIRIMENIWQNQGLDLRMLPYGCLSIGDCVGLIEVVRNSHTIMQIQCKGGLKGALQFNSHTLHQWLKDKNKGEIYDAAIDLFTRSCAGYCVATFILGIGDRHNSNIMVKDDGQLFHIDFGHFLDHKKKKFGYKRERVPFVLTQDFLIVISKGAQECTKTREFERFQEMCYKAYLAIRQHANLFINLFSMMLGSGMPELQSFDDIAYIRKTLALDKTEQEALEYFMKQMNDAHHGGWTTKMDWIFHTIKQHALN
Sequence of PI3 Kinase α (P27986 whole entry partner): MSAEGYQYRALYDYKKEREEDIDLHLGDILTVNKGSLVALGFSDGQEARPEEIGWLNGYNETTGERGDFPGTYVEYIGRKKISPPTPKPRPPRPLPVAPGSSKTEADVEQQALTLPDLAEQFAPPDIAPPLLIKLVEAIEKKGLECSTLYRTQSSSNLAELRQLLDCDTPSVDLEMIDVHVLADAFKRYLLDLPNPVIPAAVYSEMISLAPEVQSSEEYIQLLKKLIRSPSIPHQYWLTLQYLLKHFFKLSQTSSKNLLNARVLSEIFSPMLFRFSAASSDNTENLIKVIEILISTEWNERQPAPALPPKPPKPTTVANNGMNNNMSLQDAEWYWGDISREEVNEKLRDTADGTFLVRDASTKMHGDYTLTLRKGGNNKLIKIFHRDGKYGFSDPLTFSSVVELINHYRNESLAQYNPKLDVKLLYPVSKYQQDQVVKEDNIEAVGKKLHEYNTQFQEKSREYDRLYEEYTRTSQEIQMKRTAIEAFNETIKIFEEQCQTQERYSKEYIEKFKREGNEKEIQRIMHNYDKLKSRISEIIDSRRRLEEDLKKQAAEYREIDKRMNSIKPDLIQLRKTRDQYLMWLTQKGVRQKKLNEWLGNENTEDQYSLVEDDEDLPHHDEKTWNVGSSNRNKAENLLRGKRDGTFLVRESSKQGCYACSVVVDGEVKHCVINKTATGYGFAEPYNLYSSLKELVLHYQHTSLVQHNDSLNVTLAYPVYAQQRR

Compound	IC50 (PI3 Kinase α)	IC50 (PI3 Kinase γ)
1-{4-[3-(2-hydroxyethyl)-7-morpholin-4-yl-3H-[1,2,3]triazolo[4,5-d]pyrimidin-5-yl]phenyl}-3-pyridin-4-ylurea [Example 183]	5.3 nM	20 nM
3-{3-[4-(4-Benzylpiperazin-1-yl)butyl]-7-morpholin-4-yl-3H-[1,2,3]triazolo[4,5-d]pyrimidin-5-yl}phenol [Example 206]	116 nM	216 nM
Nc1ncc(-c2nc(N3CCOCC3)c3nnn(C4CCN(Cc5ccccc5)CC4)c3n2)cn1 [Example 2, 5-[3-(1-benzylpiperidin-4-yl)-7-morpholin-4-yl-3H-[1,2,3]triazolo[4,5-d]pyrimidin-5-yl]pyrimidin-2-amine]	1820 nM	4330 nM
CN(C)CCNC(=O)Nc1ccc(-c2nc(N3CCOCC3)c3nnn(C4CCN(Cc5ccccc5)CC4)c3n2)cc1 [Example 4, 1-{4-[3-(1-benzylpiperidin-4-yl)-7-morpholin-4-yl-3H-[1,2,3]triazolo[4,5-d]pyrimidin-5-yl]phenyl}-3-[2-(dimethylamino)ethyl]urea]	66 nM	204 nM
CNC(=O)Nc1ccc(-c2nc(N3CCOCC3)c3nnn(C4CCN(Cc5ccccc5)CC4)c3n2)cc1 [Example 6, 1-{4-[3-(1-benzylpiperidin-4-yl)-7-morpholin-4-yl-3H-[1,2,3]triazolo[4,5-d]pyrimidin-5-yl]phenyl}-3-methylurea]	100 nM	620 nM
CC(=O)NCCn1nnc2c(N3CCOCC3)nc(-c3cccc(O)c3)nc21 [Example 7, N-{2-[5-(3-hydroxyphenyl)-7-morpholin-4-yl-3H-[1,2,3]triazolo[4,5-d]pyrimidin-3-yl]ethyl}acetamide]	171 nM	406 nM
Oc1cccc(-c2nc(N3CCOCC3)c3nnn(CCCN4CCCC4)c3n2)c1 [Example 9, 3-[7-morpholin-4-yl-3-(3-pyrrolidin-1-ylpropyl)-3H-[1,2,3]triazolo[4,5-d]pyrimidin-5-yl]phenol]	57 nM	242 nM
OCc1cccc(-c2nc(N3CCOCC3)c3nnn(CCCN4CCCC4)c3n2)c1 [Example 10, {3-[7-morpholin-4-yl-3-(3-pyrrolidin-1-ylpropyl)-3H-[1,2,3]triazolo[4,5-d]pyrimidin-5-yl]phenyl}methanol]	132 nM	154 nM
CCn1nnc2c(N3CCOCC3)nc(-c3ccc(NC(=O)Nc4ccc([N+](=O)[O-])cc4)cc3)nc21 [Example 247, 1-[4-(3-ethyl-7-morpholin-4-yl-3H-[1,2,3]triazolo[4,5-d]pyrimidin-5-yl)phenyl]-3-(4-nitrophenyl)urea]	–	15 nM
CCn1nnc2c(N3CCOCC3)nc(-c3ccc(NC(=O)Nc4ccc(NCc5ccc(F)nc5)cc4)cc3)nc21 [Example 254, 1-[4-(3-ethyl-7-morpholin-4-yl-3H-[1,2,3]triazolo[4,5-d]pyrimidin-5-yl)phenyl]-3-(4-{[(6-fluoropyridin-3-yl)methyl]amino}phenyl)urea]	–	7.5 nM
CCn1nnc2c(N3CCOCC3)nc(-c3ccc(NC(=O)Nc4ccc(NCc5ccc(OC)nc5)cc4)cc3)nc21 [Example 255, 1-[4-(3-ethyl-7-morpholin-4-yl-3H-[1,2,3]triazolo[4,5-d]pyrimidin-5-yl)phenyl]-3-(4-{[(6-methoxypyridin-3-yl)methyl]amino}phenyl)urea]	–	5 nM
CC(C)n1nnc2c(N3CCOCC3)nc(-c3ccc(NC(=O)Nc4ccc(C(=O)N5CCN(C)CC5)cc4)cc3)nc21 [Example 257, 1-{4-[3-(1-methylethyl)-7-morpholin-4-yl-3H-[1,2,3]triazolo[4,5-d]pyrimidin-5-yl]phenyl}-3-{4-[(4-methylpiperazin-1-yl)carbonyl]phenyl}urea]	–	10 nM
CCn1nnc2c(N3CCOCC3)nc(-c3ccc(NC(=O)Nc4ccc(N5CCN(C)CC5)cc4)cc3)nc21 [Example 259, 1-[4-(3-ethyl-7-morpholin-4-yl-3H-[1,2,3]triazolo[4,5-d]pyrimidin-5-yl)phenyl]-3-[4-(4-methylpiperazin-1-yl)phenyl]urea]	–	4 nM
CCn1nnc2c(N3CCOCC3)nc(-c3ccc(NC(=O)Nc4ccc(NC(=O)NCCOC)cc4)cc3)nc21 [Example 276, 1-[4-(3-ethyl-7-morpholin-4-yl-3H-[1,2,3]triazolo[4,5-d]pyrimidin-5-yl)phenyl]-3-(4-{[(2-methoxyethyl)carbamoyl]amino}phenyl)urea]	–	4.45 nM
CC(C)n1nnc2c(N3CCOCC3)nc(-c3ccc(NC(=O)Nc4ccc([N+](=O)[O-])cc4)cc3)nc21 [Example 278, 1-{4-[3-(1-methylethyl)-7-morpholin-4-yl-3H-[1,2,3]triazolo[4,5-d]pyrimidin-5-yl]phenyl}-3-(4-nitrophenyl)urea]	–	21.5 nM
CC(C)n1nnc2c(N3CCOCC3)nc(-c3ccc(NC(=O)Nc4ccc(NS(C)(=O)=O)cc4)cc3)nc21 [Example 279, N-[4-({[4-(3-isopropyl-7-morpholin-4-yl-3H-[1,2,3]triazolo[4,5-d]pyrimidin-5-yl)phenyl]carbamoyl}amino)phenyl]methanesulfonamide]	–	12 nM
CC(C)n1nnc2c(N3CCOCC3)nc(-c3ccc(NC(=O)Nc4ccc(N)cc4)cc3)nc21 [Example 280, 1-(4-aminophenyl)-3-[4-(3-isopropyl-7-morpholin-4-yl-3H-[1,2,3]triazolo[4,5-d]pyrimidin-5-yl)phenyl]urea]	–	7.5 nM
CCn1nnc2c(N3CCOC[C@@H]3C)nc(-c3ccc(NC(=O)Nc4ccc(C(=O)NCCN5CCCC5)cc4)cc3)nc21 [Example 283, 4-{[(4-{3-ethyl-7-[(3S)-3-methylmorpholin-4-yl]-3H-[1,2,3]triazolo[4,5-d]pyrimidin-5-yl}phenyl)carbamoyl]amino}-N-(2-pyrrolidin-1-ylethyl)benzamide]	–	3.35 nM
CCn1nnc2c(N3CCOC[C@@H]3C)nc(-c3ccc(NC(=O)Nc4ccc(C(=O)NCCN5CCCCC5)cc4)cc3)nc21 [Example 284, 4-{[(4-{3-ethyl-7-[(3S)-3-methylmorpholin-4-yl]-3H-[1,2,3]triazolo[4,5-d]pyrimidin-5-yl}phenyl)carbamoyl]amino}-N-(2-piperidin-1-ylethyl)benzamide]	–	4.35 nM
CCn1nnc2c(N3CCOCC3)nc(-c3ccc(NC(=O)Nc4ccc(C(=O)N5CCN(C)CC5)nc4)cc3)nc21 [Example 289, 1-[4-(3-ethyl-7-morpholin-4-yl-3H-[1,2,3]triazolo[4,5-d]pyrimidin-5-yl)phenyl]-3-{6-[(4-methylpiperazin-1-yl)carbonyl]pyridin-3-yl}urea]	–	6 nM

Continued by falling IC50 (PI3 Kinase γ), values first:

IC50 (PI3 Kinase α)	IC50 (PI3 Kinase γ)	Compound
121 nM	667 nM	Oc1cccc(-c2nc(N3CCOCC3)c3nnn(C4CCN(Cc5ccccc5)CC4)c3n2)c1 [Example 1, 3-[3-(1-benzylpiperidin-4-yl)-7-morpholin-4-yl-3H-[1,2,3]triazolo[4,5-d]pyrimidin-5-yl]phenol]
86 nM	196 nM	CC(=O)NCCn1nnc2c(N3CCOCC3)nc(-c3cccc(CO)c3)nc21 [Example 8, N-(2-{5-[3-(hydroxymethyl)phenyl]-7-morpholin-4-yl-3H-[1,2,3]triazolo[4,5-d]pyrimidin-3-yl}ethyl)acetamide]
80 nM	168 nM	Oc1cncc(-c2nc(N3CCOCC3)c3nnn(C4CCNCC4)c3n2)c1 [Example 12, 5-(7-morpholin-4-yl-3-piperidin-4-yl-3H-[1,2,3]triazolo[4,5-d]pyrimidin-5-yl)pyridin-3-ol]
69 nM	133 nM	Oc1cncc(-c2nc(N3CCOCC3)c3nnn(C4CCN(Cc5ccccc5)CC4)c3n2)c1 [Example 3, 5-[3-(1-benzylpiperidin-4-yl)-7-morpholin-4-yl-3H-[1,2,3]triazolo[4,5-d]pyrimidin-5-yl]pyridin-3-ol]
68 nM	133 nM	O=C(Nc1ccc(-c2nc(N3CCOCC3)c3nnn(C4CCN(Cc5ccccc5)CC4)c3n2)cc1)C(F)(F)F [Example 5, N-{4-[3-(1-benzylpiperidin-4-yl)-7-morpholin-4-yl-3H-[1,2,3]triazolo[4,5-d]pyrimidin-5-yl]phenyl}-2,2,2-trifluoroacetamide]
83 nM	132 nM	c1cc(-c2nc(N3CCOCC3)c3nnn(CCCN4CCCC4)c3n2)c2cn[nH]c2c1 [Example 11, 5-(1H-indazol-4-yl)-7-morpholin-4-yl-3-(3-pyrrolidin-1-ylpropyl)-3H-[1,2,3]triazolo[4,5-d]pyrimidine]
–	91.5 nM	CCn1nnc2c(N3CCOCC3)nc(-c3ccc(NC(=O)Nc4ccc(C(=O)OC)nc4)cc3)nc21 [Example 287, Methyl 5-({[4-(3-ethyl-7-morpholin-4-yl-3H-[1,2,3]triazolo[4,5-d]pyrimidin-5-yl)phenyl]carbamoyl}amino)pyridine-2-carboxylate]
–	5.5 nM	CC(C)n1nnc2c(N3CCOCC3)nc(-c3ccc(NC(=O)Nc4ccc(N5CCN(C)CC5)cc4)cc3)nc21 [Example 277, 1-{4-[3-(1-methylethyl)-7-morpholin-4-yl-3H-[1,2,3]triazolo[4,5-d]pyrimidin-5-yl]phenyl}-3-[4-(4-methylpiperazin-1-yl)phenyl]urea]
–	3.83 nM	CCn1nnc2c(N3CCOCC3)nc(-c3ccc(NC(=O)Nc4ccc(NCc5ccncc5)cc4)cc3)nc21 [Example 252, 1-[4-(3-ethyl-7-morpholin-4-yl-3H-[1,2,3]triazolo[4,5-d]pyrimidin-5-yl)phenyl]-3-{4-[(pyridin-4-ylmethyl)amino]phenyl}urea]
–	3.1 nM	CCn1nnc2c(N3CCOCC3)nc(-c3ccc(NC(=O)Nc4ccc(NC(=O)N5CCOCC5)cc4)cc3)nc21 [Example 263, N-[4-({[4-(3-ethyl-7-morpholin-4-yl-3H-[1,2,3]triazolo[4,5-d]pyrimidin-5-yl)phenyl]carbamoyl}amino)phenyl]morpholine-4-carboxamide]
–	2.8 nM	CCn1nnc2c(N3CCOC[C@@H]3C)nc(-c3ccc(NC(=O)Nc4ccc(C(=O)N5CCC(N(C)C)CC5)cc4)cc3)nc21 [Example 281, (S)-1-(4-(4-(dimethylamino)piperidine-1-carbonyl)phenyl)-3-(4-(3-ethyl-7-(3-methylmorpholino)-3H-[1,2,3]triazolo[4,5-d]pyrimidin-5-yl)phenyl)urea]
